# In patent US11696913B2, “Prolonged ectoparasite-controlling agent for animal” (MITSUI CHEMICALS AGRO, INC., priority 2017, dated 2023):
# How the values were obtained:
# Ctenocephalides felis [1] = assay: In vitro contact test with fleas; conditions: read-out: insecticidal activity; for pest or weed control at 0.2 µg/cm2, 0.2 µg/cm2: dose 0.2 μg/cm^2, dead or moribund fleas after 48 h; for pest or weed control at 1 µg/cm2, 1 µg/cm2: dose 1 μg/cm^2, dead or moribund fleas after 48 h; for pest or weed control at 0.04 µg/cm2, 0.04 µg/cm2: dose 0.04 μg/cm^2, dead or moribund fleas after 48 h
# Outline: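 Adult male and female cat fleas (5-10 per tube) placed in glass tubes coated with compound from acetone solution (900 ppm gives 5 μg/cm^2), kept at room temperature and ambient humidity. After 48 h, motionless or uncoordinated fleas scored dead or moribund; activity expressed as % dead or moribund.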
# Dermacentor variabilis = assay: In vitro contact test with adult hard ticks (Dermacentor variabilis); conditions: read-out: acaricidal activity; for pest or weed control at 0.2 µg/cm2, 0.2 µg/cm2: dose 0.2 μg/cm^2, 48 h; for pest or weed control at 1 µg/cm2, 1 µg/cm2: dose 1 μg/cm^2, 48 h
# Outline: (§1)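 Adult R. sanguineus, I. ricinus, D. variabilis or A. americanum nymphs exposed in glass vials coated with compound from acetone (900 ppm gives 5 μg/cm^2). Held 48 h at room temperature (R. sanguineus) or 21° C., 85% rel. hum.; then heated at 45-50° C. ≤5 min, motionless or uncoordinated ticks scored dead/moribund.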
# Rhipicephalus sanguineus = assay: In vitro contact test with adult hard ticks (Rhipicephalus sanguineus); conditions: read-out: acaricidal activity; for pest or weed control at 0.2 µg/cm2, 0.2 µg/cm2: dose 0.2 μg/cm^2, 48 h; for pest or weed control at 1 µg/cm2, 1 µg/cm2: dose 1 μg/cm^2, 48 h
# Outline: as §1
# [2] = test system: Rhipicephalus (Boophilus) microplus; assay: In vitro injection test with Rhipicephalus (Boophilus) microplus (BOOPMI Inj); conditions: 168 h, laid fertile eggs after 7 days, read-out: acaricidal activity; for pest or weed control at 0.00016 mg: dose 0.16 μg/animal injected; for pest or weed control at 0.0008 mg: dose 0.8 μg/animal injected; for pest or weed control at 32 ng: dose 0.032 μg/animal injected
# Outline: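 Test substance in DMSO; 1 μl injected into abdomen of each of 5 engorged adult female ticks, then held at 28° C., 85% rel. hum. Activity scored after 7 days from laying of fertile eggs: 100% = no eggs or all infertile, 0% = all eggs fertile.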
# Ctenocephalides felis [3] = assay: Ctenocephalides felis in-vitro feeding test with fleas (CTECFE oral); conditions: 48 hours, read-out: insecticidal feeding activity; for pest or weed control at 0.16 ppm: dose 0.16 ppm in citrated cattle blood; for pest or weed control at 0.8 ppm: dose 0.8 ppm in citrated cattle blood; for pest or weed control at 4 ppm: dose 4 ppm in citrated cattle blood; for pest or weed control at 0.032 ppm: dose 0.032 ppm in citrated cattle blood
# Outline: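 About 20 unfed adult cat fleas fed through parafilm on citrated cattle blood containing test substance (DMSO solution diluted in blood), held at about 37° C. Kill rate scored after 48 hours, 100% meaning all fleas dead.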
# Spodoptera litura = assay: Insecticidal testing against common cutworm; assay type: in vivo; conditions: foliar, 144 h, concentration 100 ppm, cabbage leaf dip, second-stage larvae, after 6 days, read-out: pesticidal rate
# Text: Insecticidal Testing Against Common Cutworm (Spodoptera litura)
# Plutella xylostella = assay: Insecticidal testing against diamondback moth; assay type: in vivo; conditions: foliar, 144 h, concentration 100 ppm, cabbage leaf dip, third-stage larvae, after 6 days, read-out: pesticidal rate
# Text: Insecticidal Testing Against Diamondback Moth (Plutella xylostella)
# Laodelphax striatellus = assay: Insecticidal testing against small brown planthopper; assay type: in vivo; conditions: 144 h, concentration 100 ppm, sprayed rice seedlings, after 6 days, read-out: pesticidal rate
# Experimental: Insecticidal Testing Against Small Brown Planthopper (Laodelphax striatellus)
# An additional test was carried out with 10 small brown planthoppers by preparing an acetone solution of the testing compound diluted to a predetermined concentration, spraying the solution onto rice seedlings and air drying the rice seedlings. The medicament was all used as received. The rice seedlings were placed in a constant-temperature room at 25° C., and the survival rate was investigated after 6 days. The test was carried out by means of one group of 10 pests.
# Amblyomma americanum = assay: In vitro contact test with hard ticks (Amblyomma americanum nymphs); conditions: read-out: acaricidal activity; for pest or weed control at 1 µg/cm2, 1 µg/cm2: dose 1 μg/cm^2, 48 h
# Outline: as §1
SMILES,"pest or weed control at 0.2 µg/cm2, 0.2 µg/cm2 (Ctenocephalides felis [1]) [%]","pest or weed control at 1 µg/cm2, 1 µg/cm2 (Ctenocephalides felis [1]) [%]","pest or weed control at 0.2 µg/cm2, 0.2 µg/cm2 (Dermacentor variabilis) [%]","pest or weed control at 1 µg/cm2, 1 µg/cm2 (Dermacentor variabilis) [%]","pest or weed control at 0.2 µg/cm2, 0.2 µg/cm2 (Rhipicephalus sanguineus) [%]","pest or weed control at 1 µg/cm2, 1 µg/cm2 (Rhipicephalus sanguineus) [%]",pest or weed control at 0.00016 mg [2] [%],pest or weed control at 0.0008 mg [2] [%],pest or weed control at 0.16 ppm (Ctenocephalides felis [3]) [%],pest or weed control at 0.8 ppm (Ctenocephalides felis [3]) [%],pest or weed control at 4 ppm (Ctenocephalides felis [3]) [%],pest or weed control at 100 ppm (Spodoptera litura) [%],pest or weed control at 100 ppm (Plutella xylostella) [%],pest or weed control at 100 ppm (Laodelphax striatellus) [%],"pest or weed control at 0.04 µg/cm2, 0.04 µg/cm2 (Ctenocephalides felis [1]) [%]",pest or weed control at 0.0064 ppm (Ctenocephalides felis [3]; dose 0.0064 ppm in citrated cattle blood) [%],pest or weed control at 0.032 ppm (Ctenocephalides felis [3]) [%],pest or weed control at 32 ng [2] [%],"pest or weed control at 0.2 µg/cm2, 0.2 µg/cm2 (Amblyomma americanum; dose 0.2 μg/cm^2, 48 h) [%]","pest or weed control at 1 µg/cm2, 1 µg/cm2 (Amblyomma americanum) [%]"
CN(C(=O)c1ccc(Cl)c(Cl)c1)c1cccc(C(=O)Nc2c(I)cc(C(F)(C(F)(F)F)C(F)(F)F)cc2C(F)(F)F)c1F [Compound 44],95,95,90,90,90,90,100,100,95,95,95,≥ 70,≥ 70,≥ 70,–,–,–,–,–,–
CSc1ccc(C(=O)N(C)c2cccc(C(=O)Nc3c(I)cc(C(F)(C(F)(F)F)C(F)(F)F)cc3C(F)(F)F)c2F)cc1 [Compound 53],95,95,90,90,–,–,100,100,95,95,95,≥ 70,≥ 70,≥ 70,95,95,95,–,–,–
CN(C(=O)c1ccc([N+](=O)[O-])cc1)c1cccc(C(=O)Nc2c(I)cc(C(F)(C(F)(F)F)C(F)(F)F)cc2C(F)(F)F)c1F [Compound 54],95,95,90,90,90,90,100,100,95,95,95,≥ 70,≥ 70,≥ 70,95,–,95,100,–,–
Cc1ccc(C(=O)N(C)c2cccc(C(=O)Nc3c(I)cc(C(F)(C(F)(F)F)C(F)(F)F)cc3C(F)(F)F)c2F)cc1 [Compound 58],95,95,–,–,–,90,100,100,–,95,95,≥ 70,≥ 70,≥ 70,95,–,–,100,90,90
CN(C(=O)c1ccc(C(F)(F)F)cc1)c1cccc(C(=O)Nc2c(I)cc(C(F)(C(F)(F)F)C(F)(F)F)cc2C(F)(F)F)c1F [Compound 59],95,95,–,–,90,90,100,100,95,95,95,≥ 70,≥ 70,≥ 70,–,–,–,100,–,90
CN(C(=O)c1ccc(C#N)cc1)c1cccc(C(=O)Nc2c(Br)cc(C(F)(C(F)(F)F)C(F)(F)F)cc2OC(F)(F)F)c1F [Compound 88],95,95,90,90,90,90,100,100,95,95,95,≥ 70,≥ 70,≥ 70,–,–,95,100,–,–
CN(C(=O)c1ccc(C(F)(F)F)nc1)c1cccc(C(=O)Nc2c(Br)cc(C(F)(C(F)(F)F)C(F)(F)F)cc2OC(F)(F)F)c1F [Compound 98],95,95,90,90,–,–,100,100,–,95,95,≥ 70,≥ 70,≥ 70,–,–,–,–,–,–
CN(C(=O)c1ccc(C(F)(F)F)nc1)c1cccc(C(=O)Nc2c(I)cc(C(F)(C(F)(F)F)C(F)(F)F)cc2OC(F)F)c1F [Compound 107],95,95,90,90,90,–,100,100,95,95,95,≥ 70,≥ 70,≥ 70,95,–,95,100,–,–
